From patent publication US12023397B2, “Scalp protection composition” (PATECH FINE CHEMICALS CO., LTD., priority 2021, dated 2024)

Tests used:
[1] = Spreadability (spreading rate on quantitative filter paper); type: physicochemical; conditions: 50 μL on quantitative filter paper NO. 5C, spreading area after 5 minutes divided by time
Description: 50 μL of the carboxylate compound of formula (I-1) prepared in Synthesis Example 1 was dropped on the center of a quantitative filter paper (NO. 5C), and after 5 minutes, the spreading area of the carboxylate compound of formula (I-1) on the quantitative filter paper was measured. The spreading rate (mm^2/min) was calculated by dividing the spreading area by the spreading time (i.e., 5 minutes).
The carboxylate compound of formula (I-2) prepared in Synthesis Example 2, the carboxylate compound of formula (I-3) prepared in Synthesis Example 3, and the test samples of Comparative Examples 1 to 3 were subjected to the same measurement as described above.
The higher the spreading rate, the better the spreadability is.

[2] = tested on: skin of a test subject; experiment: Moisture retention (skin moisture content after application); type: in vivo; conditions: 20° C.±3° C., relative humidity 30%±5%
Description: 0.1 g of the scalp protection composition of Example 1 was applied to the skin of a test subject. At the 1st, 2nd, and 3rd hours after start of application of the scalp protection composition of Example 1, the skin moisture content (%) of the test subject was measured by using a skin moisture tester (Manufacturer: Cortex Technology; Model no.: DermaLab® Combo) under a temperature of 20° C.±3° C. and a relative humidity of 30%±5%.
The test samples of Comparative Examples 1 and 3 were subjected to the same measurement as described above.
The higher the skin moisture content, the better the moisture retention is.

[3] = Hydrolysis resistance (variation in acid value in alkaline aqueous solution, pH 13); type: physicochemical; conditions: 10 g sample + 20 g NaOH aqueous solution pH 13, 40±1° C.
Description: 10 g of the carboxylate compound of formula (I-1) prepared in Synthesis Example 1 was mixed with 20 g of an alkaline aqueous solution with a pH value of 13 (which contained sodium hydroxide and water), and then subjected to a reaction at 40±1° C. for 4 hours. Next, the variation in acid value (mg KOH/g) was measured at the 0.75th, 2nd, 3rd, and 4th hours after starting the reaction.
The carboxylate compound of formula (I-2) prepared in Synthesis Example 2, the carboxylate compound of formula (I-3) prepared in Synthesis Example 3, and the test samples of Comparative Examples 1 to 2 were subjected to the same reaction and measurement as described above.
The smaller the variation in acid value, the better the hydrolysis resistance to strong bases is.

Work on `CCCCCCCCCCC(CCCCCCCC)COC(=O)CCCCCCCCCCCCCCC(C)C` (stereo not shown) [Comparative Example 1, 2-octyldodecyl isostearate] yielded a Spreading rate [1] of 150 mm^2/min, a Skin moisture content ([2]; 1st hour after application of 0.1 g to skin) of 28.0% and a Skin moisture content ([2]; 2nd hour after application of 0.1 g to skin) of 22.7%. The Skin moisture content ([2]; 3rd hour after application of 0.1 g to skin) was 19.3%, the “Variation in acid value” ([3]; 0.75th hour) was 0.21 mg KOH/g and the “Variation in acid value” ([3]; 2nd hour) was 0.26 mg KOH/g. For the same compound, the “Variation in acid value” ([3]; 3rd hour) was 0.28 mg KOH/g and the “Variation in acid value” ([3]; 4th hour) was 0.32 mg KOH/g.

With `CCCCCCCCCCC(CCCCCCCC)COC(=O)C(CC)CCCC` (stereo not shown) [Synthesis Example 1, 2-octyldodecyl 2-ethylhexanoate] the Spreading rate [1] was 202 mm^2/min, the “Variation in acid value” ([3]; 0.75th hour) was less than 0.1 mg KOH/g and the “Variation in acid value” ([3]; 2nd hour) was less than 0.1 mg KOH/g. For the same compound, the “Variation in acid value” ([3]; 3rd hour) was 0.12 mg KOH/g and the “Variation in acid value” ([3]; 4th hour) was 0.16 mg KOH/g.
